Experimental data: patent US11318232B2, “Compositions and methods for delivering drugs to a vessel wall” (Interface Biologics, Inc., priority 2018, dated 2022)

Tested on: Rat Aortic Smooth Muscle Cells (RASMCs)
Details: drug spiked directly into growth media, 20 ng/mL

In the case of `CO[C@H]1C[C@@H]2CC[C@@H](C)[C@@](O)(O2)C(=O)C(=O)N2CCCC[C@H]2C(=O)O[C@H]([C@H](C)C[C@@H]2CC[C@@H](O)[C@H](OC)C2)CC(=O)[C@H](C)/C=C(\C)[C@@H](O)[C@@H](OC)C(=O)[C@H](C)C[C@H](C)/C=C/C=C/C=C/1C` [sirolimus], the “Normalized cell growth at 72 hours” value is reported as 0.463±0.035.
